Molecules are shown by their SMILES. Counter-ions that a name gives are not always drawn.

One may read the inhibition as the share of the control response that was lost under treatment. Low readings indicate a response near the control, high ones a response far below the control.

This assay concerns the target T1, human hNET (Homo sapiens, UniProt P23975).
T1 construct: expressed in transfected cells; host or cells: MDCK-Net6 (MDCK cells stably transfected with hNET)
Put plainly: Norepinephrine (NE) uptake assay in MDCK-Net6 cells. Format: cell-based. As to conditions: 30 μM test compound (stated in cell), [3H]NE uptake.

T1 sequence (P23975 whole entry): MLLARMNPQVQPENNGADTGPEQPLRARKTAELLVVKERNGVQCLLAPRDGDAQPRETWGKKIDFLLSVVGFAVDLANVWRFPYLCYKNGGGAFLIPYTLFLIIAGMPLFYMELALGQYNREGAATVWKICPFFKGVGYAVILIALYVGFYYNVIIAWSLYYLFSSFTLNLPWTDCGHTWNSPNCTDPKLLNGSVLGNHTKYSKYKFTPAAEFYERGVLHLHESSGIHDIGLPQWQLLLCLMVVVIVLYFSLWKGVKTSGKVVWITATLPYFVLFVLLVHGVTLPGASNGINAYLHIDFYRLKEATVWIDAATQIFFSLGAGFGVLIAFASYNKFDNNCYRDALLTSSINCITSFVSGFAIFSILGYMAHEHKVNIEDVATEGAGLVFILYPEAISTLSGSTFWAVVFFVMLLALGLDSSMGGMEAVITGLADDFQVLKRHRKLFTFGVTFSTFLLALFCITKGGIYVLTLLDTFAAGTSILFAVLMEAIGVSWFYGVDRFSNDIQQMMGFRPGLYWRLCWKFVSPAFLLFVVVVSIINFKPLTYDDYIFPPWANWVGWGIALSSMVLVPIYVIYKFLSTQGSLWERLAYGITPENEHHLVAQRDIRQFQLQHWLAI

In turn, `OC1(C(CNCc2ccc(F)cc2)c2cccc(Br)c2)CCCCC1` (centres unmarked) [Example 98, 1-{1-(3-bromophenyl)-2-[(4-fluorobenzyl)amino]ethyl}cyclohexanol hydrochloride] registered an inhibition at 30 µM of 69%.
For `OC1(C(CN2CCOCC2)c2ccc(Cl)c(Cl)c2)CCCCC1` (centres unmarked) [Example 112, 1-[1-(3,4-dichlorophenyl)-2-morpholin-4-ylethyl]cyclohexanol hydrochloride] the value was 80%.

These data come from patent US7402698B2, “Secondary amino-and cycloamino-cycloalkanol derivatives and methods of their use” (Wyeth, priority 2003, dated 2008).
